Results on 19 molecules are retold here after PubChem BioAssay AID214 (DTP/NCI, 2004).

The test system of this test is B6C3F1 mice, colon carcinoma 38 s.c., T/C. Nature of the test: NCI In Vivo Anticancer Drug Screen. Data for tumor model Colon Carcinoma 38 (subcutaneous) in B6C3F1 mice. Conditions: higher = larger tumour. As for the experimental part:
The antitumor activity of compounds was measured in mice bearing transplantable tumors. Survival or tumor size were measured and the results are expressed as the measurement made in the treated group (T) divided by the measurement made in the vehicle treated control group (C). The tumor model used in this assay is Colon Carcinoma 38 (subcutaneous) in B6C3F1 mice

The mark [1] stands for this setting: endpoint: median tumor weight (est.), dose: 25.0 mg/kg/injection, schedule: Q07DX002 (ip), vehicle: saline with Tween-80.
Setting [2] is: endpoint: median tumor weight (est.), dose: 50.0 mg/kg/injection, schedule: Q07DX002 (ip), vehicle: saline with Tween-80.
Setting [3] is: endpoint: median tumor weight (est.), dose: 100.0 mg/kg/injection, schedule: Q07DX002 (ip), vehicle: saline with Tween-80.
The mark [4] stands for this setting: endpoint: median tumor weight (est.), dose: 200.0 mg/kg/injection, schedule: Q07DX002 (ip), vehicle: saline with Tween-80.
[5] abbreviates: endpoint: median tumor weight (est.), dose: 50.0 mg/kg/injection, schedule: Q07DX002 (ip), vehicle: saline.
[6] abbreviates: endpoint: median tumor weight (est.), dose: 100.0 mg/kg/injection, schedule: Q07DX002 (ip), vehicle: saline.
[7] abbreviates: endpoint: median tumor weight (est.), dose: 200.0 mg/kg/injection, schedule: Q07DX002 (ip), vehicle: saline.
Setting [8] is: endpoint: median tumor weight (est.), dose: 400.0 mg/kg/injection, schedule: Q07DX002 (ip), vehicle: saline.
[9] abbreviates: endpoint: median tumor weight (est.), dose: 12.5 mg/kg/injection, schedule: Q07DX002 (ip), vehicle: saline with Tween-80.
Where [10] appears, read: endpoint: median tumor weight (est.), dose: 50.0 mg/kg/injection, schedule: Q07DX002 (ip), vehicle: water.
[11] abbreviates: endpoint: median tumor weight (est.), dose: 100.0 mg/kg/injection, schedule: Q07DX002 (ip), vehicle: water.
[12] abbreviates: endpoint: median tumor weight (est.), dose: 50.0 mg/kg/injection, schedule: Q07DX002 (ip), vehicle: suspension in saline.
[13] abbreviates: endpoint: median tumor weight (est.), dose: 100.0 mg/kg/injection, schedule: Q07DX002 (ip), vehicle: suspension in saline.

Molecules are shown by their SMILES. Where “and” joins values, the source holds several entries; their conditions need not be identical. Equal entries are not always repeated. Inconclusive results are not listed.

For `Nc1ccc2c(c1)CN1C(=O)c3ccccc3C1=N2`, the T/C by setting is: (endpoint: median tumor weight (est.), dose: 6.25 mg/kg/injection, schedule: Q01DX008 (ip), vehicle: other) 90 % of control; (endpoint: median tumor weight (est.), dose: 12.5 mg/kg/injection, schedule: Q01DX008 (ip), vehicle: other) 69 % of control; (endpoint: median tumor weight (est.), dose: 25.0 mg/kg/injection, schedule: Q01DX008 (ip), vehicle: other) 58 % of control; (endpoint: median tumor weight (est.), dose: 25.0 mg/kg/injection, schedule: Q07DX002 (ip), vehicle: other) 82 % of control and 92 % of control; under setting [1], 60 % of control; (endpoint: median tumor weight (est.), dose: 50.0 mg/kg/injection, schedule: Q01DX008 (ip), vehicle: other) 21 % of control. In addition, the T/C is, setting by setting: under setting [2], 56 % of control; (endpoint: median tumor weight (est.), dose: 100.0 mg/kg/injection, schedule: Q07DX002 (ip), vehicle: other) 49 % of control; under setting [3], 60 % of control; (endpoint: median tumor weight (est.), dose: 200.0 mg/kg/injection, schedule: Q07DX002 (ip), vehicle: other) 1 % of control; under setting [4], 35 % of control; (endpoint: median tumor weight (est.), dose: 355.9 mg/kg/injection, schedule: Q07DX002 (oral), vehicle: DMSO) 74 % of control. Further, the T/C was 94 % of control (endpoint: median tumor weight (est.), dose: 533.6 mg/kg/injection, schedule: Q07DX002 (oral), vehicle: DMSO); 76 % of control (endpoint: median tumor weight (est.), dose: 800.0 mg/kg/injection, schedule: Q07DX002 (oral), vehicle: DMSO); 122 % of control (endpoint: median tumor weight (est.), dose: 1200.0 mg/kg/injection, schedule: Q07DX002 (oral), vehicle: DMSO); 77 % of control (endpoint: optimum tumor weight change, dose: 86.0 mg/kg/injection, schedule: Q07DX002 (ip), vehicle: saline with Tween-80); 84 % of control (endpoint: optimum tumor weight change, dose: 144.0 mg/kg/injection, schedule: Q07DX002 (ip), vehicle: saline with Tween-80); 84 % of control (endpoint: optimum tumor weight change, dose: 240.0 mg/kg/injection, schedule: Q07DX002 (ip), vehicle: saline with Tween-80). Further, the T/C (endpoint: optimum tumor weight change, dose: 400.0 mg/kg/injection, schedule: Q07DX002 (ip), vehicle: saline with Tween-80) is 71 % of control.

With `CC(=O)CC(=O)CCC(=O)O`, the T/C was 87 % of control under setting [5], 88 % of control under setting [6], 86 % of control under setting [7] and 89 % of control under setting [8].

Regarding `Nc1nc(N)c2c(ccc3c2ccn3Cc2cccc([N+](=O)[O-])c2)n1`, the T/C by setting is: (endpoint: median tumor weight (est.), dose: 3.13 mg/kg/injection, schedule: Q07DX002 (ip), vehicle: saline with Tween-80) 61 % of control; (endpoint: median tumor weight (est.), dose: 6.25 mg/kg/injection, schedule: Q07DX002 (ip), vehicle: saline with Tween-80) 102 % of control; under setting [9], 85 % of control; under setting [1], 57 % of control; under setting [2], 12 % of control.

`C=C(C(=O)O)C(N)C(=O)O` (configuration not stated): the T/C is 56 % of control (endpoint: median tumor weight (est.), dose: 150.0 mg/kg/injection, schedule: Q07DX002 (ip), vehicle: saline) and 94 % of control (endpoint: median tumor weight (est.), dose: 300.0 mg/kg/injection, schedule: Q07DX002 (ip), vehicle: saline).

On to `O=c1c(O)c(-c2cc(O)c(O)c(O)c2)oc2cc(O)cc(O)c12`, for which the T/C (endpoint: median tumor weight (est.), dose: 600.0 mg/kg/injection, schedule: Q07DX002 (ip), vehicle: saline with Tween-80) is 95 % of control.

Turning to `CCCCCC(O)C1C(=O)OC(C)C(O)/C=C/C=C/C=C/C=C\C=C(\C)C(O)CC(O)CC(O)CC(O)CC(O)CC(O)CC1O` (configuration not stated), the T/C (endpoint: median tumor weight (est.), dose: 6.25 mg/kg/injection, schedule: Q07DX002 (ip), vehicle: water) is 81 % of control; the T/C (endpoint: median tumor weight (est.), dose: 12.5 mg/kg/injection, schedule: Q07DX002 (ip), vehicle: water) was 103 % of control; the T/C (endpoint: median tumor weight (est.), dose: 25.0 mg/kg/injection, schedule: Q07DX002 (ip), vehicle: water) is 77 % of control; the T/C under setting [10] was 69 % of control; the T/C under setting [11] is 62 % of control.

As for `CC(C)NCC(O)COc1ccc(O)c(O)c1` (configuration not stated), the T/C by setting is: under setting [5], 97 % of control; under setting [6], 94 % of control.

In the case of `Cc1cc(NCCCCCCCCNc2cc(C)nc3cc(N(C)C)ccc23)c2ccc(N(C)C)cc2n1`, the T/C reads like this: (endpoint: median tumor weight (est.), dose: 3.12 mg/kg/injection, schedule: Q07DX002 (ip), vehicle: distilled water + Tween-80 + alcohol) 105 % of control; (endpoint: median tumor weight (est.), dose: 6.25 mg/kg/injection, schedule: Q07DX002 (ip), vehicle: distilled water + Tween-80 + alcohol) 78 % of control; (endpoint: median tumor weight (est.), dose: 12.5 mg/kg/injection, schedule: Q07DX002 (ip), vehicle: distilled water + Tween-80 + alcohol) 69 % of control; (endpoint: median tumor weight (est.), dose: 25.0 mg/kg/injection, schedule: Q07DX002 (ip), vehicle: distilled water + Tween-80 + alcohol) 160 % of control.

In the case of `O=C(c1cccnc1)c1cc(-c2ccccn2)c(=O)n2ccccc12`, the T/C is, setting by setting: under setting [7], 75 % of control; under setting [8], 83 % of control; (endpoint: median tumor weight (est.), dose: 800.0 mg/kg/injection, schedule: Q07DX002 (ip), vehicle: saline) 88 % of control.

With `CCn1cnc2c(=S)nc[nH]c21`, the T/C is 85 % of control under setting [5]; 92 % of control under setting [12]; 73 % of control under setting [6]; 58 % of control under setting [13]; 55 % of control under setting [7]; 16 % of control (endpoint: median tumor weight (est.), dose: 200.0 mg/kg/injection, schedule: Q07DX002 (ip), vehicle: suspension in saline). For the same molecule, the T/C under setting [8] was 1 % of control.

`O=S(=O)([O-])c1ccc(-c2c3nc(c(-c4ccc(S(=O)(=O)[O-])cc4)c4ccc([n-]4)c(-c4ccc(S(=O)(=O)[O-])cc4)c4nc(c(-c5ccc(S(=O)(=O)[O-])cc5)c5ccc2[n-]5)C=C4)C=C3)cc1.[Mn+3].[Na+]`: the T/C reads like this: (endpoint: median tumor weight change, dose: 226.9 mg/kg/injection, schedule: Q07DX002 (iv), vehicle: water) 67 % of control; (endpoint: median tumor weight change, dose: 340.9 mg/kg/injection, schedule: Q07DX002 (iv), vehicle: water) 77 % of control; (endpoint: median tumor weight change, dose: 515.0 mg/kg/injection, schedule: Q07DX002 (iv), vehicle: water) 110 % of control.

`COc1cc2c[n+](C)c3c(c2cc1OC)Cc1cc2c(cc1-3)OCO2`: the T/C is, setting by setting: under setting [2], 94 % of control; under setting [3], 107 % of control; under setting [4], 97 % of control; (endpoint: median tumor weight (est.), dose: 400.0 mg/kg/injection, schedule: Q07DX002 (ip), vehicle: saline with Tween-80) 85 % of control.

On to `Oc1cccc2ccccc12`, for which the T/C under setting [10] is 91 % of control; the T/C under setting [11] was 87 % of control; the T/C (endpoint: median tumor weight (est.), dose: 200.0 mg/kg/injection, schedule: Q07DX002 (ip), vehicle: water) was 76 % of control.

Regarding `O=C1N[C@@H]2C(=C[C@H](O)[C@@H](O)[C@H]2O)c2cc3c(c(O)c21)OCO3`, the T/C is, setting by setting: (endpoint: median tumor weight (est.), dose: 1.25 mg/kg/injection, schedule: Q07DX002 (ip), vehicle: saline with Tween-80) 123 % of control; (endpoint: median tumor weight (est.), dose: 5.0 mg/kg/injection, schedule: Q07DX002 (ip), vehicle: saline with Tween-80) 60 % of control; (endpoint: median tumor weight (est.), dose: 10.0 mg/kg/injection, schedule: Q07DX002 (ip), vehicle: saline with Tween-80) 69 % of control; (endpoint: median tumor weight (est.), dose: 20.0 mg/kg/injection, schedule: Q07DX002 (ip), vehicle: saline with Tween-80) 43 % of control.

In the case of `CCN(CC)CCOCCO`, the T/C is 150 % of control under setting [12] and 160 % of control under setting [13].

As for `CC1c2ccccc2CC(CCN(C)C)c2ccccc21` (configuration not stated), the T/C was 164 % of control under setting [9], 84 % of control under setting [1], 108 % of control under setting [2] and 69 % of control under setting [4].

`CSCS(=O)C[C@H](CO)NC(=O)/C=C/c1c(C)[nH]c(=O)[nH]c1=O` (some centres not stated): the T/C was 74 % of control (endpoint: median tumor weight (est.), dose: 2.0 mg/kg/injection, schedule: Q07DX002 (ip), vehicle: saline) and 66 % of control (endpoint: median tumor weight (est.), dose: 4.0 mg/kg/injection, schedule: Q07DX002 (ip), vehicle: saline).

With `C=C1COC(O)(C2OCOC(C3CC(=O)NC(=O)C3)C2O)C1C` (configuration not stated), the T/C (endpoint: median tumor weight (est.), dose: 31.25 micrograms/kg/injection, schedule: Q07DX002 (ip), vehicle: water) was 119 % of control.

Turning to `CCN(CC)CCOC(=O)Cc1cc(OC)cc2c(=O)cc(-c3ccccc3)oc12`, the T/C is 37 % of control (endpoint: median tumor weight (est.), dose: 200.0 mg/kg/injection, schedule: Q07DX002 (ip), vehicle: Klucel (hydroxypropylcellulose) (HPC)) and 73 % of control (endpoint: median tumor weight (est.), dose: 400.0 mg/kg/injection, schedule: Q07DX002 (ip), vehicle: Klucel (hydroxypropylcellulose) (HPC)).
